Measurements from paper PMC5011342, “A high throughput drug screening assay to identify compounds that promote oligodendrocyte differentiation using acutely dissociated and purified oligodendrocyte precursor cells” (BMC Research Notes, 2016).
Read-outs that look alike come from different tables or passages of the source.

Columns and labels:
expanded OPCs = test: cells; details: for viability at 0.1 µM / viability at 1 µM / viability at 10 µM: Rattus norvegicus, 72 h
How it was run: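 Expanded OPCs seeded at 10,000 cells/well in differentiation media, then exposed to NCC library compounds at 10, 1 and 0.1 µM (quadruplicate, 0.1% DMSO) for three days. Viability read as alamarBlue fluorescence (560/590 nm) after 4 h at 37 °C; tunicamycin 5 ng/ml served as toxicity control.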

[1] = test system: acutely dissociated and purified rat OPCs; test: Acute OL differentiation assay (MBP expression/cell, immunofluorescent image quantification); type: cell-based; details: for activation at 2 µM / activation at 10 µM / activation at 0.08 µM / activation at 0.4 µM: Rattus norvegicus; for activation at 0.08 µM: test compound at 0.08 uM, read-out: 0.08 uM (% Quet)
How it was run: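 Oligodendrocyte precursor cells were enriched from P6-P7 Sprague–Dawley rat brains by immunopanning (RAN-2 and GalC depletion, O4 selection), plated at 5000 cells/well in serum-free, mitogen-free differentiation media on PDL/laminin 96-well view plates, centrifuged at 200×g, and pre-incubated 1–2 h before test compounds were added in quadruplicate. On DIV4, cells were fixed, stained for MBP and DAPI, imaged automatically, and MBP expression per cell was quantified.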

[2] = alamarBlue viability of expanded OPCs, compound at 0.1 µM, relative to DMSO control
[3] = alamarBlue viability of expanded OPCs, compound at 1 µM, relative to DMSO control
[4] = alamarBlue viability of expanded OPCs, compound at 10 µM, relative to DMSO control
[5] = test compound at 2 uM, NCC library screen, sheet "All OLga data", relative to quetiapine, read-out: 2 uM (% Quet)
[6] = test compound at 10 uM, NCC library screen, sheet "All OLga data", relative to quetiapine, read-out: 10 uM (% Quet)
[7] = NCC library screen, sheet "All OLga data", relative to quetiapine
[8] = read-out: 0.1 µM (% DMSO), alamarBlue viability, NCC library compound at 0.1 µM, sheet "All Tox data"
[9] = read-out: 1 µM (% DMSO), alamarBlue viability, NCC library compound at 1 µM, sheet "All Tox data"
[10] = read-out: 10 µM (% DMSO), alamarBlue viability, NCC library compound at 10 µM, sheet "All Tox data"
[11] = 2 uM test compound, relative to quetiapine, sheet "All OLga data", read-out: OL differentiation, 2 uM (% Quet)
[12] = test compound at 0.4 uM, NCC library screen, sheet "All OLga data", relative to quetiapine, read-out: 0.4 uM (% Quet)
[13] = read-out: 0.1 µM (% DMSO), alamarBlue viability of expanded OPCs, compound at 0.1 µM, sheet All Tox data
[14] = read-out: 1 µM (% DMSO), alamarBlue viability of expanded OPCs, compound at 1 µM, sheet All Tox data
[15] = read-out: 10 µM (% DMSO), alamarBlue viability of expanded OPCs, compound at 10 µM, sheet All Tox data
[16] = 10 uM test compound, relative to quetiapine, sheet "All OLga data", read-out: OL differentiation, 10 uM (% Quet)

Compound	0.1 µM (% DMSO) (expanded OPCs; [2])	1 µM (% DMSO) (expanded OPCs; [3])	10 µM (% DMSO) (expanded OPCs; [4])	activation at 2 µM [1, 5]	viability at 0.1 µM (expanded OPCs; [8])	viability at 1 µM (expanded OPCs; [9])	viability at 10 µM (expanded OPCs; [10])	activation at 0.4 µM [1, 12]	further results
NS(=O)(=O)c1cc2c(cc1Cl)N=CNS2(=O)=O [Chlorothiazide]	88.9 % DMSO	90.2 % DMSO	89.0 % DMSO	-11.1%	–	–	–	–	activation at 10 µM [1, 6]: -11.8%
Oc1c(Cl)cc(Cl)c2cccnc12 [Chloroxine]	24.3 % DMSO	10.2 % DMSO	8.9 % DMSO	–	–	–	–	–	activation at 0.08 µM [1, 7]: -87.1%
CN(C)CCC(c1ccc(Cl)cc1)c1ccccn1 (stereo not drawn) [Chlorpheniramine]	–	–	–	7.6%	86.5%	77.7%	46.7%	-6.7%	activation at 0.4 µM ([1]; 0.4 uM test compound, relative to quetiapine, sheet "All OLga data", read-out: OL differentiation, 0.4 uM (% Quet)): 8.7%; activation at 2 µM [1, 11]: 10.5%
CN(C)CCCN1c2ccccc2Sc2ccc(Cl)cc21 [Chlorpromazine]	–	–	–	–	67.2%	38.2%	10.5%	-44.8%	activation at 0.08 µM [1, 7]: 7.4%
CCCNC(=O)NS(=O)(=O)c1ccc(Cl)cc1 [Chlorpropamide]	185.9 % DMSO	197.2 % DMSO	208.8 % DMSO	-27.8%	–	–	–	–	activation at 10 µM [1, 6]: -19%
NS(=O)(=O)c1cc(C2(O)NC(=O)c3ccccc32)ccc1Cl (stereo not drawn) [Chlorthalidone]	92.5 % DMSO	95.8 % DMSO	81.7 % DMSO	–	–	–	–	–	activation at 2 µM ([1]; test compound at 2 uM, MBP expression relative to quetiapine, NCC library screen, sheet "All OLga data", read-out: 2 uM (% Quet)): -5.8%; activation at 10 µM ([1]; test compound at 10 uM, MBP expression relative to quetiapine, NCC library screen, sheet "All OLga data", read-out: 10 uM (% Quet)): -2%
CC1(C)C[C@@H]1C(=O)N/C(=C\CCCCSC[C@H](N)C(=O)O)C(=O)O [Cilastatin]	–	–	–	–	–	–	–	–	viability at 0.1 µM (expanded OPCs; read-out: 0.1 µM (% DMSO)): 96.8%; viability at 1 µM (expanded OPCs; read-out: 1 µM (% DMSO)): 95.5%; viability at 10 µM (expanded OPCs; read-out: 10 µM (% DMSO)): 89.5%; activation at 2 µM ([1]; read-out: OL differentiation, 2 uM (% Quet)): -1.9%; activation at 10 µM ([1]; read-out: OL differentiation, 10 uM (% Quet)): -4.3%
CN/C(=N/CCSCc1nc[nH]c1C)NC#N [Cimetidine]	89.7 % DMSO	89.2 % DMSO	92.3 % DMSO	2.9%	–	–	–	–	activation at 10 µM [1, 6]: -11.1%
CN(C)CCCSc1ccccc1NC(=O)/C=C/c1ccccc1 [Cinanserin]	–	–	–	–	–	–	–	–	viability at 0.1 µM (expanded OPCs; [13]): 80.3%; viability at 1 µM (expanded OPCs; [14]): 84.3%; viability at 10 µM (expanded OPCs; [15]): 74.7%; activation at 2 µM [1, 11]: 64.2%; activation at 10 µM [1, 16]: 63.5%
COc1cc(N)c(Cl)cc1C(=O)NC1CCN(CCCOc2ccc(F)cc2)CC1OC (stereo not drawn) [Cisapride]	–	–	–	–	–	–	–	–	viability at 0.1 µM (expanded OPCs; [13]): 80.4%; viability at 1 µM (expanded OPCs; [14]): 89%; viability at 10 µM (expanded OPCs; [15]): 73.6%; activation at 2 µM [1, 11]: 11.3%; activation at 10 µM [1, 16]: 25.5%
Nc1nc(Cl)nc2c1ncn2[C@H]1C[C@H](O)[C@@H](CO)O1 [Cladribine]	–	–	–	–	41.2%	22.4%	10.4%	-22.9%	activation at 0.08 µM [1, 7]: -6.7%
NC(=NCc1ccc(Cl)cc1)SCCCc1cnc[nH]1 [Clobenpropit]	–	–	–	-2.7%	120%	107%	39.3%	7.2%	–
C[C@H]1C[C@H]2[C@@H]3CCC4=CC(=O)C=C[C@]4(C)[C@@]3(F)[C@@H](O)C[C@]2(C)[C@@]1(O)C(=O)CCl [Clobetasol]	–	–	–	–	–	–	–	–	0.1 µM (% DMSO) (expanded OPCs; alamarBlue viability, NCC library compound at 0.1 µM, sheet "All Tox data"): 124.1 % DMSO; 1 µM (% DMSO) (expanded OPCs; alamarBlue viability, NCC library compound at 1 µM, sheet "All Tox data"): 133.0 % DMSO; 10 µM (% DMSO) (expanded OPCs; alamarBlue viability, NCC library compound at 10 µM, sheet "All Tox data"): 121.5 % DMSO; 2 uM (% Quet) ([1]; test compound at 2 uM, NCC library screen, sheet "All OLga data", relative to quetiapine): -30.9 % Quet; 10 uM (% Quet) ([1]; test compound at 10 uM, NCC library screen, sheet "All OLga data", relative to quetiapine): -99.6 % Quet
